Laboratory results as given in ChEMBL document CHEMBL1201862, “PubChem BioAssay data set” (2004).
Calls of active or inactive are those of the source.

Experiments:
[1] = target: T1, Endoribonuclease toxin MazF (Escherichia coli K-12, UniProt P0AE70); assay: MazF toxin RNase activators, dose response, biochemical, fluorescence, single-stranded RNA substrate, uHTS hits (AID 588481); assay type: functional
T1 sequence (P0AE70 whole entry): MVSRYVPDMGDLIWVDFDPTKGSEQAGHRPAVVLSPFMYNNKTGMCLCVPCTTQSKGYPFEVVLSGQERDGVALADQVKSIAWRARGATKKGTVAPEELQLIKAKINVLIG

[2] = target: T1, Endoribonuclease toxin MazF; assay: fluorescent RNA oligo signal without MazF, dose response, counter-screen for MazEF activator project, biochemical, fluorescence, single-stranded RNase substrate (AID 588502); assay type: functional
HEK293 [3] = assay: inhibitors of LMP1-driven NF-kB reporter, dose response, cell-based, HEK293, luciferase, cherry-pick (AID 588343); assay type: functional; conditions: Homo sapiens
[4] = inhibitors of firefly luciferase expression or activity, dose response, H4 neuroglioma cells, luminescence (AID 1990); assay type: functional, cell-based
[5] = target: Peroxisome proliferator-activated receptor gamma/Nuclear receptor coactivator 1 (Homo sapiens, UniProt P37231); assay: (§1) TR-FRET dose response biochemical High Throughput Screening assay for agonists of the steroid receptor coactivator 1 (SRC-1) recruitment by the peroxisome proliferator-activated receptor gamma (PPAR gamma): non-selective agonists. [Related pubchem assays (depositor defined):AID1300, AID1808, AID504735, AID631]; assay type: protein assay
[6] = Luminescence Cell-Based Dose Response HTS to Identify Inhibitors of 5'UTR Stem-Loop Driven Prion Protein mRNA Translation in H4 Neuroglioblastoma Cells. [Related pubchem assays: 1827 (Project Summary), 1813 (Primary HTS)]; assay type: functional
[7] = target: Peroxisome proliferator-activated receptor gamma/Nuclear receptor coactivator 3 (Homo sapiens, UniProt P37231); assay: as §1, with “3 (SRC-3)” for “1 (SRC-1)”, “assays: 1301 (Confirmation screen.), 1048 (Primary screen.)]” for “assays (depositor defined):AID1300, AID1808, AID504735, AID631]”; assay type: functional
[8] = inhibitors of SNCA 5'UTR-driven reporter translation, confirmation, H4 neuroglioma cells, luminescence (AID 1988); assay type: functional, cell-based
[9] = target: Peroxisome proliferator-activated receptor gamma/Nuclear receptor coactivator 2 (Homo sapiens, UniProt P37231); assay: TR-FRET dose response biochemical High Throughput Screening assay for agonists of the steroid receptor coactivator 2 (SRC-2) recruitment by the peroxisome proliferator-activated receptor gamma (PPAR gamma): non-selective agonists. [Related pubchem assays: 1297, 1032 ]; assay type: functional
[10] = target: Dual specificity tyrosine-phosphorylation-regulated kinase 1A (Rattus norvegicus, UniProt Q63470); assay type: biochemical, Homo sapiens
cells = assay type: functional
Insulin-degrading enzyme [11] = target: T2, Insulin-degrading enzyme (Homo sapiens, UniProt P14735); assay: activators of recombinant IDE enzyme, dose response, counter-screen for IDE activator project, biochemical, fluorescence polarization (AID 588681)
T2 sequence (P14735 whole entry): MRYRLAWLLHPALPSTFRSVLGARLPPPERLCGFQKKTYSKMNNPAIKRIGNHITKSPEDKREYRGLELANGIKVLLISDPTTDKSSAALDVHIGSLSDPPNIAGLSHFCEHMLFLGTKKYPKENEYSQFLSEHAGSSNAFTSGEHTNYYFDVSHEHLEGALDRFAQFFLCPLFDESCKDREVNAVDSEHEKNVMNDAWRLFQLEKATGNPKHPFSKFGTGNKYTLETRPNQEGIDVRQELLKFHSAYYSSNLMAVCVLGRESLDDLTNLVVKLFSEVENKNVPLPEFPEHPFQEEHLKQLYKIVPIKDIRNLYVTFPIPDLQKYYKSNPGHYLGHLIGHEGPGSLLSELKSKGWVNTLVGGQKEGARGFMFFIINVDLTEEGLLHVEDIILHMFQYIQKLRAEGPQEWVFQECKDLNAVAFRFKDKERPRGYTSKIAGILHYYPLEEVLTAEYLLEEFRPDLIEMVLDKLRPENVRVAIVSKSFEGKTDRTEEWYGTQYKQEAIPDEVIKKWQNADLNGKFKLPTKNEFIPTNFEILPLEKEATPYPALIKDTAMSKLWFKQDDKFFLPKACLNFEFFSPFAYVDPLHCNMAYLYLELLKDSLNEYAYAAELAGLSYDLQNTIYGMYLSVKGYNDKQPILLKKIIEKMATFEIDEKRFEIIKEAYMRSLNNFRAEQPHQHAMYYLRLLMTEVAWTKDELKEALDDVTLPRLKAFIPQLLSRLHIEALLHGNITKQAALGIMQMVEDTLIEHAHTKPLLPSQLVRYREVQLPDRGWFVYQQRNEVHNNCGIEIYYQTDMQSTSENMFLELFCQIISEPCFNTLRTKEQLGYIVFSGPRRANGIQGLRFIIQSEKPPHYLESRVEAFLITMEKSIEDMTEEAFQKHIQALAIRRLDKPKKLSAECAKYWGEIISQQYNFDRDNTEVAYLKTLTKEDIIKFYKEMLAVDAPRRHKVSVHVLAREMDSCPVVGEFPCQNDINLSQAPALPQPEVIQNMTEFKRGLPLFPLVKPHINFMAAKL

Insulin-degrading enzyme [12] = target: T2, Insulin-degrading enzyme; assay: activators of endogenous IDE in HEK cells, dose response, cell-based, fluorescence polarization (AID 588439); assay type: functional
HEK293 [13] = assay: HEK cell cytotoxicity by LDH release, dose response, cytotoxicity control for IDE activator project, fluorescence, HEK cells (AID 588440); assay type: functional, cell-based; conditions: Homo sapiens;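 also: cytotoxicity by LDH release measuring loss of membrane integrity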
HEK293 [14] = assay: optical interference in Abeta FP readout, dose response, artefact control for IDE activator project, biochemical, fluorescence polarization (AID 588442); assay type: functional, cell-based; conditions: Homo sapiens
Cytochrome P450 2D6 = Cytochrome P450 2D6 (Homo sapiens, UniProt P10635);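 also: CYP2D6 member of a cytochrome P450 panel assay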
[15] = target: T3, Voltage-gated N-type calcium channel alpha-1B subunit/Amyloid beta A4 precursor protein-binding family A member 1 (Homo sapiens, UniProt Q00975+Q02410); assay type: protein assay
[16] = target: T3, Voltage-gated N-type calcium channel alpha-1B subunit/Amyloid beta A4 precursor protein-binding family A member 1; assay type: protein assay; remark: listed apart in the source
[17] = target: T4, Carboxy-terminal domain RNA polymerase II polypeptide A small phosphatase 1 (Homo sapiens, UniProt Q9GZU7); assay: inhibitors of CTDSP1, concentration-response testing, biochemical assay, absorbance-based, actives from ultra-high-throughput screening (AID 540297); assay type: functional
T4 sequence (Q9GZU7 whole entry): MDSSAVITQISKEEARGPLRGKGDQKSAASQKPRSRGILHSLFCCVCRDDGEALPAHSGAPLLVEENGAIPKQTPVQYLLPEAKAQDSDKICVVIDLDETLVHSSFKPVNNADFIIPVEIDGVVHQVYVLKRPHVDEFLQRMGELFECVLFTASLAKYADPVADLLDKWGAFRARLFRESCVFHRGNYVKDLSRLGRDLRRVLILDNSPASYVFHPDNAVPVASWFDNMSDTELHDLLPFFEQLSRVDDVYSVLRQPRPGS

T3 sequence (Q00975 whole entry): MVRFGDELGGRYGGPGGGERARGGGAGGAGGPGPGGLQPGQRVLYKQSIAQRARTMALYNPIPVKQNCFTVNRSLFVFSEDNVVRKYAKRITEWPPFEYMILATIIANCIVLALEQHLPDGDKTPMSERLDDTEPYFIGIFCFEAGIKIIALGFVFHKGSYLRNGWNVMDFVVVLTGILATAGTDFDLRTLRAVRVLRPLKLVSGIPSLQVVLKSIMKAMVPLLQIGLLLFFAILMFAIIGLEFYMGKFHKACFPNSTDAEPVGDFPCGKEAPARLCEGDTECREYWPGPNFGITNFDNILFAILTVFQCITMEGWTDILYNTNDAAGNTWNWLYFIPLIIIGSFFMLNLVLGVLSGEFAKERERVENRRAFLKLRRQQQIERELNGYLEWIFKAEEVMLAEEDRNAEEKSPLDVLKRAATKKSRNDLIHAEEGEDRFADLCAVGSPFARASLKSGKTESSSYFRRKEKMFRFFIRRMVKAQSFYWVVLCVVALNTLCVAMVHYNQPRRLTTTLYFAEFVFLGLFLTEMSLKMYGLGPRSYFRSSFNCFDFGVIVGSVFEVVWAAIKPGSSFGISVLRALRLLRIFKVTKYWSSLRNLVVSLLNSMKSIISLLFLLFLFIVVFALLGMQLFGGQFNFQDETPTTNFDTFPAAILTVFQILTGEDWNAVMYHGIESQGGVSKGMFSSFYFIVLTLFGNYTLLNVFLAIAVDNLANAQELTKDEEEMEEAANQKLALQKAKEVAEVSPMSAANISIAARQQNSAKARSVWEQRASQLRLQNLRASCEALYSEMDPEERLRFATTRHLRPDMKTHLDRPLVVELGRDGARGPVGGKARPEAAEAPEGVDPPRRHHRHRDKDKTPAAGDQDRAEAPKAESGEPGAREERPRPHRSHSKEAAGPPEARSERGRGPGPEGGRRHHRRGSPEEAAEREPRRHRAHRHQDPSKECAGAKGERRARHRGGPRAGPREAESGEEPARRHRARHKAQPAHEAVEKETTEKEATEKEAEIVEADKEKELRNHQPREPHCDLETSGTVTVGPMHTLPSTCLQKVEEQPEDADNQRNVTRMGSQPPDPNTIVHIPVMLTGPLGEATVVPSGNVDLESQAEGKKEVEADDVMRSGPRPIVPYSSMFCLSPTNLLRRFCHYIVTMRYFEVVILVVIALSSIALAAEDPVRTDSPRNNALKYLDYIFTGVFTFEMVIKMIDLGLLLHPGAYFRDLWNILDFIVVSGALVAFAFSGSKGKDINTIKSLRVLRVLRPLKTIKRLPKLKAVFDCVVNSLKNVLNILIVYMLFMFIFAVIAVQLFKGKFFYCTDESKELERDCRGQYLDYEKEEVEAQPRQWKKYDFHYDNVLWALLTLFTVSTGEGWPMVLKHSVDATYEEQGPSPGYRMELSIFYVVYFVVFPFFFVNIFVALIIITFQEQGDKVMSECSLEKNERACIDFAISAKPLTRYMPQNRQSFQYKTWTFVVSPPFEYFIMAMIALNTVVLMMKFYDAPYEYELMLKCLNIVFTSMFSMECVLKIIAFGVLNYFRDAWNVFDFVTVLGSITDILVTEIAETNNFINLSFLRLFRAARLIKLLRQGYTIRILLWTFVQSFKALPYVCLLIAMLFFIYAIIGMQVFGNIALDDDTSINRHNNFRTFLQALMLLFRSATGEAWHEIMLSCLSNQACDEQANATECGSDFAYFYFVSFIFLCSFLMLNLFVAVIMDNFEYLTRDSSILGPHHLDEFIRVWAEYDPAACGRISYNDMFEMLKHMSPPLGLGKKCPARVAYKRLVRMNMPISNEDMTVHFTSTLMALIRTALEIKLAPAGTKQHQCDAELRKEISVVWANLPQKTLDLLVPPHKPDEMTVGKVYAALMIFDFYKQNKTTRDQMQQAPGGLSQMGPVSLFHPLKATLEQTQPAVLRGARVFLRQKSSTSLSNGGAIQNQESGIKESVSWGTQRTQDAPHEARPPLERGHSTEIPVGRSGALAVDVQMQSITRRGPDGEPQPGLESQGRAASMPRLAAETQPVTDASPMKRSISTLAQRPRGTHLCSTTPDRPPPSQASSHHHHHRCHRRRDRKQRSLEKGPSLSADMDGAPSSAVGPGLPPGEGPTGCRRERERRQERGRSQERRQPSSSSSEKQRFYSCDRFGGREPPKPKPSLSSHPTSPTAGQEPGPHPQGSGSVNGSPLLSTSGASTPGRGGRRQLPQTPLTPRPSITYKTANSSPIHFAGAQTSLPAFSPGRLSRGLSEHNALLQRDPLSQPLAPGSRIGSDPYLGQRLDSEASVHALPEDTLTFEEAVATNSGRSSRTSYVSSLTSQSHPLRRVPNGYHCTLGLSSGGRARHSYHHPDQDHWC
T3 sequence (Q02410 whole entry): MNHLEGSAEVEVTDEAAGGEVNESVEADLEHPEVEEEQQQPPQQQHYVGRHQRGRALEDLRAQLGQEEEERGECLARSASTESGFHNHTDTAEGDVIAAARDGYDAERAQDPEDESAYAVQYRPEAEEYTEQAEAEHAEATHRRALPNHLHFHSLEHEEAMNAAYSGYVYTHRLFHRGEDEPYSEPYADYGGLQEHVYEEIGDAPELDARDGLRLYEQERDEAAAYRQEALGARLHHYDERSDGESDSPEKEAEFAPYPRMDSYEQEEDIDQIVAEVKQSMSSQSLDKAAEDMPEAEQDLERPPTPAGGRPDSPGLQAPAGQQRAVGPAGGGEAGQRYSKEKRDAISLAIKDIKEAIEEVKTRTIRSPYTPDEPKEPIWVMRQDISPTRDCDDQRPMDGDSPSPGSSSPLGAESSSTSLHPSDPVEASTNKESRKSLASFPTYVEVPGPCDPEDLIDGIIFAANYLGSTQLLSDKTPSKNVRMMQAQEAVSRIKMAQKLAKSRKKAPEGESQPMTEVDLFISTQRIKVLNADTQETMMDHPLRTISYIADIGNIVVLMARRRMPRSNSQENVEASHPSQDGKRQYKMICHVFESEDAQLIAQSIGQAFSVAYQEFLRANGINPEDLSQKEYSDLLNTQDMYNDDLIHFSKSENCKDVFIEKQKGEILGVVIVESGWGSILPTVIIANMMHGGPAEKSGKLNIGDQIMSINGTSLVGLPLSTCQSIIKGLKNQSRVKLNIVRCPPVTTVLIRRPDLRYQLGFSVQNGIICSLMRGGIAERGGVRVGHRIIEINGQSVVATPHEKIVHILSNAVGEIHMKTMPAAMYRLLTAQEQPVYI
Sequence of Peroxisome proliferator-activated receptor gamma/Nuclear receptor coactivator 1 (P37231 whole entry): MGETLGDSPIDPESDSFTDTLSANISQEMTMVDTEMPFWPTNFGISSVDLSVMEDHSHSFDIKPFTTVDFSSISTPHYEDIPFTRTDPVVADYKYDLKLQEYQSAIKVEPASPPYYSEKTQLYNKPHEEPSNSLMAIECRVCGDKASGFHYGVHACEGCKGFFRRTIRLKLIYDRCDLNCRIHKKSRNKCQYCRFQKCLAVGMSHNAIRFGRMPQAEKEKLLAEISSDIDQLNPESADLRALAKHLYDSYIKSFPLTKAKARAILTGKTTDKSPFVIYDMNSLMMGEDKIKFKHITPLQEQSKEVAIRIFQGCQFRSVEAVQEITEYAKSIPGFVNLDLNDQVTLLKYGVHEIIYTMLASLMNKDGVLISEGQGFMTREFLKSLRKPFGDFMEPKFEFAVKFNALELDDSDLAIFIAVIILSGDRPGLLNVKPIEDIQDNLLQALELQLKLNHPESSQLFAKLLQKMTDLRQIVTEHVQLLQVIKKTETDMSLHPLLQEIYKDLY
Sequence of Peroxisome proliferator-activated receptor gamma/Nuclear receptor coactivator 1 (Q15788 whole entry, further chain): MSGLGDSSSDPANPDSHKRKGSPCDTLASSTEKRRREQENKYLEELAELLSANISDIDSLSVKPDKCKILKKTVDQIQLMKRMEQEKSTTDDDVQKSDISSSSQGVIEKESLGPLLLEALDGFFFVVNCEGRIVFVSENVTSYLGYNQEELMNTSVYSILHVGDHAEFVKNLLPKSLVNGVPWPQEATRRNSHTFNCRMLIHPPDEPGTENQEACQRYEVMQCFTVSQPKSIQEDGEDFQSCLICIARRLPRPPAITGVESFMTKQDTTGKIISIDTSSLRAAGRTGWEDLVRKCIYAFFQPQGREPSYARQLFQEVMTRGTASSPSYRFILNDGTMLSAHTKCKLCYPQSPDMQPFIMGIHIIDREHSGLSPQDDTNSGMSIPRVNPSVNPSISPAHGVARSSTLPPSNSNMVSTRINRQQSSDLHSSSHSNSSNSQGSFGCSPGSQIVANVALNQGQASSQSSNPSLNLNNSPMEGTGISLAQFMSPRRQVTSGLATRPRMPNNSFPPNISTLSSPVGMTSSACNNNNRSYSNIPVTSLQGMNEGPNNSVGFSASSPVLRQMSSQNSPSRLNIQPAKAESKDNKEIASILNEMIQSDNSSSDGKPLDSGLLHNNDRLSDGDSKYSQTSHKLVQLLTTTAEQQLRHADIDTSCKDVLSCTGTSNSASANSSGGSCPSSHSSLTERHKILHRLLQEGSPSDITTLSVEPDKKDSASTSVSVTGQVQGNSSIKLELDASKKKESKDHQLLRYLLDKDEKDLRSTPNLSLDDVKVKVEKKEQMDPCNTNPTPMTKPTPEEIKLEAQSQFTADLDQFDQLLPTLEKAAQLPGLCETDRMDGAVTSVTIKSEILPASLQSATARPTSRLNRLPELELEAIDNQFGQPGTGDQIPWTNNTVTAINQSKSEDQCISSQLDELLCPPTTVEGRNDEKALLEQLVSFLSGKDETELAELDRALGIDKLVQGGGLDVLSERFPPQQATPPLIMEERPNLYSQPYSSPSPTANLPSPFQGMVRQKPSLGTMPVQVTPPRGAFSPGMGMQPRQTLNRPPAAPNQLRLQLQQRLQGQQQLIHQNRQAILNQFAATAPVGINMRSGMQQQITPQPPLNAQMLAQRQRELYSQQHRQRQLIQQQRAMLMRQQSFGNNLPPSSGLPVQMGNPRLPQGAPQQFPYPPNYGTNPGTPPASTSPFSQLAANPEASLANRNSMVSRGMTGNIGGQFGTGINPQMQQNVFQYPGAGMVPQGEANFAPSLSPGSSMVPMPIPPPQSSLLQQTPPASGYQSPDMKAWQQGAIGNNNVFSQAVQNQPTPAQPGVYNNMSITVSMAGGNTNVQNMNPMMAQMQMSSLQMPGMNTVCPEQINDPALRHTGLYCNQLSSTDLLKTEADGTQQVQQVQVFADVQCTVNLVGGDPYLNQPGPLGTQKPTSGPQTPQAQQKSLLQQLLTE

In the case of `Nc1c(C(=O)NC2CCCC2)sc2nc(-c3cccs3)ccc12`, the EC50 [1] is reported as > 99 µM (inactive) and the EC50 [2] is reported as 54 µM (inactive).
For `COc1ccccc1NC(=O)CC(c1ccc(OC(C)C)cc1)c1ccccc1OC` (stereo not drawn), the AC50 (HEK293 [3]) was 194 µM (active).
In the case of `CCCC1O[C@@H]2CC3C4CCC5=CC(=O)C=C[C@]5(C)C4C(OC(C)=O)C[C@]3(C)[C@]2(C(=O)COC(C)=O)O1` (stereo partly drawn), the EC50 [4] is reported as 22.1 µM (active), the EC50 [5] is reported as 6.65 µM (active) and the EC50 [6] is reported as > 120 µM (not active). For the same molecule, the EC50 [7] was 4.66 µM (active), the EC50 [8] was 18.8 µM (active) and the EC50 [9] was 8.71 µM (active).
For `O=C1NC(=O)N(c2ccccc2)C(=O)/C1=C/c1c(-c2ccccc2)[nH]c2ccccc12`, the AC50 [10] was 2.65 µM (active).
For `CCCCn1c(O)c(N=Nc2ccccc2O)c2ccccc21`, the EC50 [1] was 44.9 µM (inactive) and the EC50 [2] was 69.5 µM (inactive).
With `Cn1c(=O)cc(SCC(=O)N2CCN(Cc3ccc4c(c3)OCO4)CC2)c2ccccc21` the EC50 [5] was > 79.4 µM (inactive), the EC50 [7] was > 79.4 µM (not active) and the EC50 [9] was > 79.4 µM (not active).
For `CC(=O)n1cc(/C=C2/N=C(c3ccccc3)OC2=O)c2ccccc21`, the IC50 (cells) was 4.63 µM (active), the EC50 [1] was > 99 µM (inactive) and the EC50 [2] was > 99 µM (inactive).
In the case of `O=C1C=C(c2cccc3c2sc2ccccc23)C[C@@H](c2ccc(Cl)cc2)C1`, the EC50 (Insulin-degrading enzyme [11]) is reported as > 54.7 µM (inactive), the EC50 (Insulin-degrading enzyme [12]) is reported as > 54.7 µM (inactive) and the IC50 (HEK293 [13]) is reported as > 89.2 µM (inactive). For the same molecule, the EC50 (HEK293 [14]) was > 54.7 µM (inactive).
For `O=C(O)CCC(=O)c1ccc2ccc3cccc4ccc1c2c34`, the AC50 (Cytochrome P450 2D6) was “inconclusive”.
In the case of `O=C1C2C(C(=O)N1/N=C/c1ccc(N3CCCCC3)o1)C1C=CC2C12CC2` (stereo not drawn), the IC50 [15] is reported as 7.24 µM (active) and the IC50 [16] is reported as 20.1 µM (active).
For `COc1ccc([C@@H]2CC(=O)c3c(O)cc(O[C@@H]4O[C@H](CO[C@@H]5O[C@@H](C)[C@H](O)[C@@H](O)[C@H]5O)[C@@H](O)[C@H](O)[C@H]4O)cc3O2)cc1O` [HESPERIDIN], the IC50 [15] was 9.5 µM (active), the IC50 [16] was > 50 µM (inactive) and the IC50 [17] was 20.7 µM (active).
